pIC50: −log10 of the molar value. ≈ marks a conversion by molar mass, not a printed value.
Legend:
Staphylococcus aureus [1] = assay: Inhibition of methicillin-resistant Staphylococcus aureus ProRS expressed in Escherichia coli assessed as change in melting temperature in presence of AMPPNP at 0.5 mM by fluorescence-based thermal shift assay
Staphylococcus aureus [2] = assay: Antibacterial activity against Staphylococcus aureus ATCC29213 assessed as prevention of visible growth by broth microdilution method; assay type: functional
Homo sapiens = organism: Homo sapiens; assay: Inhibition of human ProRS expressed in Escherichia coli assessed as change in melting temperature in presence of AMPPNP at 0.5 mM by fluorescence-based thermal shift assay
Shigella flexneri = assay: Antibacterial activity against Shigella flexneri CMCC51572 assessed as prevention of visible growth by broth microdilution method; assay type: functional
Staphylococcus aureus [3] = assay: Antibacterial activity against Staphylococcus aureus ATCC25923 assessed as prevention of visible growth by broth microdilution method; assay type: functional
Escherichia coli [4] = assay: Antibacterial activity against Escherichia coli ATCC25922 assessed as prevention of visible growth by broth microdilution method; assay type: functional
Staphylococcus aureus [5] = assay: Antibacterial activity against methicillin-resistant Staphylococcus aureus R3708 assessed as prevention of visible growth by broth microdilution method; assay type: functional
[6] = Inhibition of methicillin-resistant Staphylococcus aureus ProRS expressed in Escherichia coli assessed as generation of inorganic monophosphate by pre-transfer editing-based experiment
Salmonella typhi = assay: Antibacterial activity against Salmonella typhi CMCC50094 assessed as prevention of visible growth by broth microdilution method; assay type: functional, Salmonella enterica subsp. enterica serovar Typhi; details: Salmonella enterica
Staphylococcus aureus [7] = assay: Antibacterial activity against methicillin-resistant Staphylococcus aureus 252 assessed as prevention of visible growth by broth microdilution method; assay type: functional
Staphylococcus aureus [8] = assay: Bactericidal activity against methicillin-resistant Staphylococcus aureus 252 assessed as bacterial killing measured after 24 hrs incubation by CLSI method; assay type: functional; details: read-out: MBC99.9
Staphylococcus aureus [9] = assay: Ratio of MBC99.9 for methicillin-resistant Staphylococcus aureus 252 to MIC for methicillin-resistant Staphylococcus aureus 252; assay type: functional
Escherichia coli [10] = assay: Ratio of MBC99.9 for Escherichia coli ATCC25922 to MIC for Escherichia coli ATCC25922; assay type: functional

SMILES | ΔTm (Staphylococcus aureus [1]) [°C] | MIC (Staphylococcus aureus [2]) [µg/mL] | ΔTm (Homo sapiens) [°C] | MIC (Shigella flexneri) [µg/mL] | MIC (Staphylococcus aureus [3]) [µg/mL] | MIC (Escherichia coli [4]) [µg/mL] | MIC (Staphylococcus aureus [5]) [µg/mL] | pIC50 [6] | MIC (Salmonella typhi) [µg/mL] | MIC (Staphylococcus aureus [7]) [µg/mL] | MBC (Staphylococcus aureus [8]) [µg/mL] | Ratio (Staphylococcus aureus [9]) | Ratio (Escherichia coli [10])
COc1cc2ncn(CC(=O)C[C@@H]3CCCCN3)c(=O)c2cc1OC | 0 | > 64 | 4.2 | > 64 | > 64 | > 64 | > 64 | < 4.00 | > 64 | > 64 |  |  | 
O=C(C[C@@H]1CCCCN1)Cn1cnc2nccnc2c1=O | 0 | > 64 | 4.9 | > 64 | > 64 | > 64 | > 64 | < 4.00 | > 64 | > 64 |  |  | 
CC1(C)S[C@@H]2[C@H](NC(=O)[C@H](N)c3ccccc3)C(=O)N2[C@H]1C(=O)O [AMPICILLIN] |  |  |  | 2 (≈ 5.72 µM) |  |  |  |  | 2 (≈ 5.72 µM) |  |  |  | 
O=C(C[C@@H]1CCCCN1)Cn1cnc2cc3ccccc3cc2c1=O | 0 | > 64 | 7.9 | > 64 | > 64 | > 64 | > 64 | < 4.00 | > 64 | > 64 |  |  | 
O=C(C[C@@H]1CCCCN1)Cn1cnc2ccc(C(F)(F)F)cc2c1=O | 1.2 | 32 (≈ 90.6 µM) | 9.9 | 64 (≈ 181 µM) | 64 (≈ 181 µM) | 64 (≈ 181 µM) | 64 (≈ 181 µM) | < 4.00 | 64 (≈ 181 µM) | 64 (≈ 181 µM) |  |  | 
O=c1c2ccccc2ncn1CCC[C@@H]1CCCCN1 | 0 | > 64 | 4.2 | > 64 | > 64 | > 64 | > 64 | < 4.00 | > 64 | > 64 |  |  | 
O=C(C[C@@H]1CCCCN1)Cn1cnc2ccc(F)cc2c1=O | 6.3 | 32 (≈ 105 µM) | 17.9 | 16 (≈ 52.7 µM) | 32 (≈ 105 µM) | 16 (≈ 52.7 µM) | 32 (≈ 105 µM) | 5.09 | 32 (≈ 105 µM) | 32 (≈ 105 µM) |  |  | 
O=c1c2cc(Cl)c(Br)cc2ncn1CC(O)C[C@@H]1CCCCN1 (some centres not stated) | 0 | > 64 | 11.9 | > 64 | > 64 | > 64 | > 64 | < 4.00 | > 64 | > 64 |  |  | 
O=C(C[C@@H]1CCCCN1)Cn1cnc2cc(F)ccc2c1=O | 6.9 | 32 (≈ 105 µM) | 18.1 | 8 (≈ 26.4 µM) | 32 (≈ 105 µM) | 16 (≈ 52.7 µM) | 32 (≈ 105 µM) | 5.77 | 32 (≈ 105 µM) | 32 (≈ 105 µM) |  |  | 
O=C(C[C@@H]1CCCCN1)Cn1cnc2cc(Br)c(Cl)cc2c1=O | 6.2 | 16 (≈ 40.1 µM) | 17.9 | 16 (≈ 40.1 µM) | 32 (≈ 80.3 µM) | 32 (≈ 80.3 µM) | 16 (≈ 40.1 µM) | 6.21 | 32 (≈ 80.3 µM) | 16 (≈ 40.1 µM) |  |  | 
O=C(C[C@@H]1CCCCN1)Cn1cnc2cccc(Cl)c2c1=O | 3 | > 64 | 15.9 | > 64 | > 64 | > 64 | > 64 | 5.25 | > 64 | > 64 |  |  | 
O=C(C[C@@H]1CCCCN1)Cn1cnc2ccccc2c1=O | 1.3 | 32 (≈ 112 µM) | 15.7 | 32 (≈ 112 µM) | 32 (≈ 112 µM) | 64 (≈ 224 µM) | 32 (≈ 112 µM) | 4.74 | 64 (≈ 224 µM) | 16 (≈ 56.1 µM) |  |  | 
O=c1c2cc(Cl)c(Cl)cc2ncn1CCC[C@@H]1CCCCN1 | 2 | > 64 | 12.4 | > 64 | > 64 | > 64 | > 64 | 5.17 | > 64 | > 64 |  |  | 
O=c1c2cc(Cl)c(Br)cc2ncn1CCC[C@@H]1CCCCN1 | 2.5 | 32 (≈ 83.2 µM) | 15.1 | 64 (≈ 166 µM) | 64 (≈ 166 µM) | 64 (≈ 166 µM) | 64 (≈ 166 µM) | 4.91 | 64 (≈ 166 µM) | 64 (≈ 166 µM) |  |  | 
O=C(C[C@@H]1CCCCN1)Cn1cnc2cccnc2c1=O | 0 | > 64 | 6.9 | > 64 | > 64 | > 64 | > 64 | < 4.00 | > 64 | > 64 |  |  | 
O=C(C[C@@H]1CCCCN1)Cn1cnc2cc(C(F)(F)F)ccc2c1=O | 3.4 | > 64 | 16.9 | > 64 | > 64 | > 64 | > 64 | 5.89 | > 64 | > 64 |  |  | 
O=C(C[C@@H]1CCCCN1)Cn1cnc2cc3c(cc2c1=O)OCO3 | 2.1 | > 64 | 15.9 | > 64 | > 64 | > 64 | > 64 | 4.44 | > 64 | > 64 |  |  | 
O=C(C[C@@H]1CCCCN1)Cn1cnc2cc(Cl)c(Cl)cc2c1=O | 7.9 | 8 (≈ 22.6 µM) | 18.9 | 16 (≈ 45.2 µM) | 16 (≈ 45.2 µM) | 16 (≈ 45.2 µM) | 4 (≈ 11.3 µM) | 6.29 | 32 (≈ 90.3 µM) | 4 (≈ 11.3 µM) | 64 (≈ 181 µM) | 16 | 
CC(C)(C)c1ccc2c(=O)n(CC(=O)C[C@@H]3CCCCN3)cnc2c1 | 0 | > 64 | 3.9 | > 64 | > 64 | > 64 | > 64 | < 4.00 | > 64 | > 64 |  |  | 
Cc1cc2ncn(CC(=O)C[C@@H]3CCCCN3)c(=O)c2cc1C | 1.3 | > 64 | 13.9 | > 64 | > 64 | > 64 | > 64 | 4.75 | > 64 | > 64 |  |  | 
O=C(C[C@@H]1CCCCN1)Cn1cnc2cc(F)c(F)cc2c1=O | 7.3 | 16 (≈ 49.8 µM) | 19.2 | 4 (≈ 12.4 µM) | 32 (≈ 99.6 µM) | 4 (≈ 12.4 µM) | 32 (≈ 99.6 µM) | 6.20 | 16 (≈ 49.8 µM) | 16 (≈ 49.8 µM) | 128 (≈ 398 µM) | 8 | 16

From ChEMBL document CHEMBL5150045, “Structure-Guided Design of Halofuginone Derivatives as ATP-Aided Inhibitors Against Bacterial Prolyl-tRNA Synthetase” (J Med Chem, 2022)
